{"source": "patent US9512425B2", "about": "“Inhibiting migration of cancer cells” (Cornell University, priority 2012, dated 2016)", "key": {"[1]": {"system": "MDA cells", "assay": "Wound healing / transwell migration with BAPTA-AM, MDA cells", "assay_type": "cell-based, human", "settings": "20 μM BAPTA-AM", "method": "(§1) Cells were plated in triplicate into 6-well plates (5×10^5 cell/well) and cultured in DMEM containing 10% FBS. A scratch wounded was generated using sterile plastic 200 μl pipette tip, and floating debris removed by washing with PBS. Cell migration was photographed and measured under phase-contrast microscopy. To measure cell migration after depletion of intracellular calcium, a scratch was made and the wound healing was monitored for 48 hr in the presence of 20 μM of BAPTA-AM (Invitrogen). The percentage of wound healed area was measured as a ratio of occupied area to the total area using Image J program (NIH)."}, "[2]": {"system": "MDA-MB-436 cells", "assay": "Wound healing migration with BAPTA-AM, MDA-MB-436 cells", "assay_type": "cell-based, human", "settings": "MDA-MB-436 cells expressing miR-708, BAPTA-AM 20 μM, 48 hours", "method": "as §1"}}, "data": [{"smiles": "CC(=O)OCOC(=O)CN(CC(=O)OCOC(C)=O)c1ccccc1OCCOc1ccccc1N(CC(=O)OCOC(C)=O)CC(=O)OCOC(C)=O", "note": "[BAPTA-AM]", "values": [{"measurement": "cell migration", "setting": "[1]; MDA control cells", "value": "dramatic impairment"}, {"measurement": "cell migration", "setting": "[1]; MDA-miR708 cells", "value": "remained less affected"}, {"measurement": "cell migration", "setting": "[2]", "value": "rescued the migration defects"}]}]}
